This passage reports IC50 results from patent publication US10738056B2 (Aduro BioTech, Inc., priority 2017, dated 2020).

Each structure is given as a SMILES string. Some results are limits rather than exact numbers.

Human cGAS amino acids 155-522, sequence (Q8N884 157-522): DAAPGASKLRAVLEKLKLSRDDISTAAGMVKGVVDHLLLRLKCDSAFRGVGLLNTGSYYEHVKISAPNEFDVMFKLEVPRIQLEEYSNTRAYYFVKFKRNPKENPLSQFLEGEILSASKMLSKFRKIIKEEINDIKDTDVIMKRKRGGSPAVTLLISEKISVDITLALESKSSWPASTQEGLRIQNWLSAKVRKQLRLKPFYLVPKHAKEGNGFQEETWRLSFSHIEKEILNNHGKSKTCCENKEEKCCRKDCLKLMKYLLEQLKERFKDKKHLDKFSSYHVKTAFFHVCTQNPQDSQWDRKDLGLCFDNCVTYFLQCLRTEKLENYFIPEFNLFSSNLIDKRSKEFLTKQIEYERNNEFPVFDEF

The assay concerns the target Human cGAS amino acids 155-522 (Homo sapiens (Human), UniProt Q8N884). Put plainly: cGAS biochemical activity assay (ATP remaining, Kinase-Glo Max luminescence). The following applies: human cGAS 155-522, ATP remaining (Kinase-Glo Max); read-out: cGAS IC50. Background: Kinase-Glo measures the ATP left after a reaction by luminescence.
What is called IC50 is the concentration that inhibits the measured activity by half. Consider `COc1ccc(-c2c(C(F)(F)F)nn3c(=O)c(-c4nc5c(OC)cccc5o4)c(C)[nH]c23)cc1` [Compound C1115, 6-(4-methoxybenzo[d]oxazol-2-yl)-3-(4-methoxyphenyl)-5-methyl-2-(trifluoromethyl)pyrazolo[1,5-a]pyrimidin-7(4H)-one], for which the IC50 lay within 20 to 250 µM.
Turning to `COc1cccc2c1nc(-c1c(C)[nH]c3c(-c4ccccc4)c(C(F)(F)F)nn3c1=O)n2C` [Compound C1087, 6-(4-methoxy-1-methyl-1H-benzo[d]imidazol-2-yl)-5-methyl-3-phenyl-2-(trifluoromethyl)pyrazolo[1,5-a]pyrimidin-7(4H)-one], the IC50 lay in the range of 20 to 250 µM.
The figure for `Cc1[nH]c2c(-c3ccccc3)c(C#N)nn2c(=O)c1-c1nnc(C2CCCCC2)o1` [Compound D1089, 6-(5-cyclohexyl-1,3,4-oxadiazol-2-yl)-5-methyl-7-oxo-3-phenyl-4,7-dihydropyrazolo[1,5-a]pyrimidine-2-carbonitrile] is < 20 µM; for `Cc1[nH]c2c(-c3ccccc3)c(C(F)(F)F)nn2c(=O)c1C(=O)N[C@H]1CCCC[C@@H]1O` [Compound A1091, N-((1S,2S)-2-hydroxycyclohexyl)-5-methyl-7-oxo-3-phenyl-2-(trifluoromethyl)-4,7-dihydropyrazolo[1,5-a]pyrimidine-6-carboxamide] it is 20 to 250 µM.
For the compound `Cc1[nH]c2c(-c3ccccc3)c(C(F)(F)F)nn2c(=O)c1C(=O)N1CCCC1` [Compound A1009, 5-methyl-3-phenyl-6-(pyrrolidine-1-carbonyl)-2-(trifluoromethyl)pyrazolo[1,5-a]pyrimidin-7(4H)-one], the IC50 is > 250 µM.
To `COc1cccc(NC(=O)c2c(C)[nH]c3c(-c4ccccc4)c(C4CC4)nn3c2=O)c1` [Compound A1123, 2-cyclopropyl-N-(3-methoxyphenyl)-5-methyl-7-oxo-3-phenyl-4,7-dihydropyrazolo[1,5-a]pyrimidine-6-carboxamide] belongs > 250 µM; to `COc1cccc2oc(-c3c(COCC(N)=O)[nH]c4c(-c5ccccc5)c(C(F)(F)F)nn4c3=O)nc12` [Compound C1198, 2-((6-(4-methoxybenzo[d]oxazol-2-yl)-7-oxo-3-phenyl-2-(trifluoromethyl)-4,7-dihydropyrazolo[1,5-a]pyrimidin-5-yl)methoxy)acetamide], 20 to 250 µM; to `COc1cccc2oc(-c3c(C(=O)N[C@H](CO)C(C)C)[nH]c4c(-c5ccccc5)c(C(F)(F)F)nn4c3=O)nc12` [Compound C1208, (S)-N-(1-hydroxy-3-methylbutan-2-yl)-6-(4-methoxybenzo[d]oxazol-2-yl)-7-oxo-3-phenyl-2-(trifluoromethyl)-4,7-dihydropyrazolo[1,5-a]pyrimidine-5-carboxamide], 20 to 250 µM.
In the case of `Cc1[nH]c2c(-c3ccccc3)c(C(F)(F)F)nn2c(=O)c1C(=O)N1CCCCC1` [Compound A1011, 5-methyl-3-phenyl-6-(piperidine-1-carbonyl)-2-(trifluoromethyl)pyrazolo[1,5-a]pyrimidin-7(4H)-one], the half-inhibitory concentration (IC50) was > 250 µM.
The figure for `COc1ccc(-c2nnc(Cc3c(C)[nH]c4c(-c5ccccc5)c(C(F)(F)F)nn4c3=O)o2)cc1` [Compound D1033, 6-((5-(4-methoxyphenyl)-1,3,4-oxadiazol-2-yl)methyl)-5-methyl-3-phenyl-2-(trifluoromethyl)pyrazolo[1,5-a]pyrimidin-7(4H)-one] is 20 to 250 µM; for `Cc1[nH]c2c(-c3ccccc3)c(C(F)(F)F)nn2c(=O)c1-c1nnc(-c2cccnc2O)o1` [Compound D1067, 6-(5-(2-hydroxypyridin-3-yl)-1,3,4-oxadiazol-2-yl)-5-methyl-3-phenyl-2-(trifluoromethyl)pyrazolo[1,5-a]pyrimidin-7(4H)-one] it is < 20 µM.
For `Cc1[nH]c2c(-c3ccccc3)c(C(F)(F)F)nn2c(=O)c1C(=O)Nc1ccccc1OC(C)C` [Compound A1060, N-(2-isopropoxyphenyl)-5-methyl-7-oxo-3-phenyl-2-(trifluoromethyl)-4,7-dihydropyrazolo[1,5-a]pyrimidine-6-carboxamide], the IC50 was 20 to 250 µM.
The figure for `COc1ccnc(NC(=O)c2c(C)[nH]c3c(-c4ccccc4)c(C)nn3c2=O)c1` [Compound A1105, N-(4-methoxypyridin-2-yl)-2,5-dimethyl-7-oxo-3-phenyl-4,7-dihydropyrazolo[1,5-a]pyrimidine-6-carboxamide] is < 20 µM.
The figure for `Cc1ccc(CN2CCN(C(=O)Cc3c(C)[nH]c4c(-c5ccccc5)c(C(F)(F)F)nn4c3=O)CC2)cc1` [Compound B1009, 5-methyl-6-(2-(4-(4-methylbenzyl)piperazin-1-yl)-2-oxoethyl)-3-phenyl-2-(trifluoromethyl)pyrazolo[1,5-a]pyrimidin-7(4H)-one] is > 250 µM; for `Cc1nc(-c2c(C)[nH]c3c(-c4ccccc4)c(C(F)(F)F)nn3c2=O)[nH]c1C` [Compound C1021, 6-(4,5-dimethyl-1H-imidazol-2-yl)-5-methyl-3-phenyl-2-(trifluoromethyl)pyrazolo[1,5-a]pyrimidin-7(4H)-one] it is 20 to 250 µM.
The figure for `COc1cc(NC(=O)c2c(C)[nH]c3c(-c4ccccc4)c(C(F)(F)F)nn3c2=O)ccn1` [Compound A1087, N-(2-methoxypyridin-4-yl)-5-methyl-7-oxo-3-phenyl-2-(trifluoromethyl)-4,7-dihydropyrazolo[1,5-a]pyrimidine-6-carboxamide] is 20 to 250 µM.
As to `COc1cccc2oc(-c3c(C)[nH]c4c(-c5ccccc5)c(S(C)(=O)=O)nn4c3=O)nc12` [Compound C1068, 6-(4-methoxybenzo[d]oxazol-2-yl)-5-methyl-2-(methylsulfonyl)-3-phenylpyrazolo[1,5-a]pyrimidin-7(4H)-one], the IC50 lay in the range of 20 to 250 µM.
As to `COc1ccccc1NC(=O)c1c[nH]c2c(-c3ccccc3)c(C(F)(F)F)nn2c1=O` [Compound A1057, N-(2-methoxyphenyl)-7-oxo-3-phenyl-2-(trifluoromethyl)-4,7-dihydropyrazolo[1,5-a]pyrimidine-6-carboxamide], the IC50 fell in the range of 20 to 250 µM.
The figure for `COc1nc(NC(C)=O)nc2oc(-c3c(C)[nH]c4c(-c5ccccc5)c(C(F)(F)F)nn4c3=O)nc12` [Compound C1150, N-(7-methoxy-2-(5-methyl-7-oxo-3-phenyl-2-(trifluoromethyl)-4,7-dihydropyrazolo[1,5-a]pyrimidin-6-yl)oxazolo[5,4-d]pyrimidin-5-yl)acetamide] is 20 to 250 µM; for `Cc1[nH]c2c(-c3ccccc3)c(C(F)(F)F)nn2c(=O)c1C(=O)Nc1ccccc1N(C)C` [Compound A1053, N-(2-(dimethylamino)phenyl)-5-methyl-7-oxo-3-phenyl-2-(trifluoromethyl)-4,7-dihydropyrazolo[1,5-a]pyrimidine-6-carboxamide] it is 20 to 250 µM.
The figure for `Cc1[nH]c2c(-c3cccc(F)c3)c(C(F)(F)F)nn2c(=O)c1-c1nc2c(o1)CCCC2` [Compound C1035, 3-(3-fluorophenyl)-5-methyl-6-(4,5,6,7-tetrahydrobenzo[d]oxazol-2-yl)-2-(trifluoromethyl)pyrazolo[1,5-a]pyrimidin-7(4H)-one] is > 250 µM; for `COc1ncccc1-c1nnc(-c2c(C)[nH]c3c(-c4ccccc4)c(C(F)(F)F)nn3c2=O)o1` [Compound D1064, 6-(5-(2-methoxypyridin-3-yl)-1,3,4-oxadiazol-2-yl)-5-methyl-3-phenyl-2-(trifluoromethyl)pyrazolo[1,5-a]pyrimidin-7(4H)-one] it is > 250 µM.
